{
  "source": "patent US20260242340A1",
  "about": "“COMPOUNDS AND METHODS FOR TREATING PROTEIN AGGREGATION DISEASES” (ACELOT, INC., priority 2023, published 2026)",
  "key": {"[1]": {"biological_target": "toxic alpha-synuclein oligomers (Homo sapiens, UniProt P37840)", "assay": "Neuronal cell toxicity assay (MTT), alpha-synuclein oligomers", "type": "cell-based", "settings": "10 μM compound; primary rat neurons; 100% = cells without alpha-synuclein oligomers, 0% = oligomers and DMSO", "protocol": "(§1) Primary rat cortical and striatal neurons were prepared from foetuses' brain as previously described (Garcia et al., Diabetes, Obesity & Metabolism 2010, 12, 403-413; Roby et al., Food chemistry 2015, 171, 397-404; Colin et al., Biochimie 2016, 130, 178-187). Briefly, the embryos were extracted, brains were collected and dissected using a binocular magnifier. Embryonic cortical/striatal tissues were dissociated by a combination of enzymatic digestion and mechanical dissociation. The relative number of live cells in cell suspension was evaluated for each cortical and striatal neurons using Thoma cell counting chamber and Axio Scope A1 microscope (Carl Zeiss, Oberkochen, Germany). Dissociated neurons were plated (80,000 cells/well) in 48-well plates pre-coated with 15 μg/mL Poly-ornithine (Sigma), 1 μg/ml Laminin (Sigma). Cells were cultured in Neurobasal medium (Invitrogen, Paris, France) serum free of and supplemented with 2% (v/v) of B-27 Supplement (Invitrogen). […]\n(§2) To induce neuronal toxicity, neurotoxin (oligomeric forms of Aβ, Tau and alpha-synuclein at 0.1-5 μM) were used. […] Cell viability was evaluated by a 3-(4,5-dimethylthiazol-2-yl)-2,5-diphenyl-2H-tetrazolium bromide (MTT) assay at 24-72 h post neurotoxin challenge. […] After complete solubilization of formazan, absorbance was recorded at 500 nm with a spectrophotometer (SpectraMax® i3x, Molecular Devices, San José, USA)."}, "toxic tau oligomers": {"tested_on": "toxic tau oligomers", "assay": "Neuronal cell toxicity assay (MTT), tau oligomers", "type": "cell-based", "settings": "primary rat neurons, 100% = cells without tau oligomers, 0% = tau oligomers and DMSO", "protocol": "as §1, §2"}},
  "data": [
    {"smiles": "CC(=O)Nc1ccc2c(c1)CCN(CCc1cccc(Cl)c1)C2", "note": "[Compound 1]", "values": [
      {"measurement": "% rescue at 10 μM comopund from toxic alpha-synuclein oligomers", "setting": "[1]", "value": 24, "unit": "%"}
    ]},
    {"smiles": "CC(=O)Nc1ccc2c(c1)CCN(CCc1ccc(F)c(Cl)c1)C2", "note": "[Compound 2]", "values": [
      {"measurement": "% rescue at 10 μM compound from toxic tau oligomers", "setting": "toxic tau oligomers", "value": 33.7, "unit": "%"}
    ]}
  ]
}
